Measurements as given in patent US10130598B2, “Methods and compositions for administration of 3-halopyruvate and related compounds for the treatment of cancer” (The Johns Hopkins University, priority 2008, dated 2018).

Key:
VX2 tumor = test: Oral administration of 3-BrPA in the VX2 liver tumor rabbit model; assay type: in vivo, New Zealand White rabbits
Procedure: New Zealand White rabbits were used in the study. All rabbits, carriers and recipients, were anesthetized with a mixture of acepromazine (2.5 mg/kg; Phoenix, St. Joseph, Mo.) and ketamine hydrochloride (44 mg/kg; Phoenix) administered intramuscularly. The VX2 tumor cell suspension was first injected into the hind legs of carrier rabbits and grown for 2 weeks. Resultant tumors were harvested from each carrier and a tumor suspension was prepared from each harvested tumor by dissection of viable tumor tissue and aseptic mincing.
For the rabbits that were going to receive the VX2 tumor implanted in the liver, intravenous access was gained via a marginal ear vein and 0.1-0.2 ml (2.5-5 mg) of sodium pentobarbital (Abbott Laboratories, Abbott Park, Ill.) was given periodically to maintain anesthesia. The abdomen of each recipient rabbit was shaved and disinfected with ethanol and povidine iodine. The liver of the rabbit was exposed by a midline incision, then an aliquot of the tumor cell suspension (0.2 ml) was injected directly using a 21-gauge angiocatheter into the left lobe of the liver in order to develop a solitary lesion with adequate surrounding liver parenchyma. The abdomen was closed in two layers. The tumor was allowed to grow in the rabbit livers for 7 days. Pain and distress levels were assessed by daily by monitoring food intake, feces and urine production and finally checking for signs of guarding or reluctance to move when touched.
Oral administration of 3-BrPA dissolved in PBS was examined using the VX2 tumor model, an animal model for hepatocellular carcinoma (described above). VX2 tumors were allowed to grow the livers of 12 New Zealand White rabbits for 10 days. Tumor bearing rabbits were divided in 4 groups. Group 1 (n=3) received 5 mg of 3-BrPA in 2.75 ml of Phosphate Buffered Saline (PBS) orally once a day, group 2 (n=3) received 10 mg of 3-BrPA in 2.75 ml of PBS orally once a day, group 3 (n=3) received 50 mg of 3-BrPA in 2.75 ml of PBS orally once a day and group 4 (control, n=3) received no treatment. Median survival for the animals in group 1 (n=3), receiving 5 mg of 3-BrPA in 2.75 ml of PBS, was 66 days. Animals in group 2 (n=3), receiving 10 mg of 3-BrPA in 2.75 ml of PBS, survived for 70 days. All the animals in group 3 (n=3), receiving 50 mg of 3-BrPA in 2.75 ml of PBS expired within 24 hours of oral administration of the first dose.
To test whether buffering 3-BrPA with NaHCO3 would allow oral administration of a higher dose of 3-BrPA, the maximum tolerated dose of orally administered 3-BrPA dissolved in NaHCO3 was determined. As in Example 1, the VX2 tumor model was used, with VX2 tumors grown in the livers of 12 New Zealand White rabbits for 10 days. Once again, the tumor bearing rabbits were divided in 4 groups. […] All animals in group 3 (n=3) expired within 24 hours after receiving 1000 mg of 3-BrPA in 2.75 ml of NaHCO3 orally.
The effect of pH on the survival of rabbits bearing VX2 liver tumors that were treated with the MTD of 3-BrPA buffered with NaHCO3 was examined. The VX2 tumor model was once again used, as described above. A total of 20 New Zealand White rabbits were included in the study. All rabbits received VX2 tumor implantation as described above. The tumor was allowed to grow in the rabbit livers for 7 days. Rabbits were divided in 4 groups. Group 1 (n=6) received 500 mg of 3-BrPA in 2.75 ml of NaHCO3 (1 M, resulting in pH 4), group 2 (n=2) received 500 mg of 3-BrPA in 2.75 ml of PBS (resulting in pH<2), group 3 (n=6) received 500 mg of 3-BrPA in 2.75 ml of NaHCO3 (2 M, resulting in pH 7) and group 4 (n=6) received no treatment (control group). All drugs were administered orally once a day.

[1] = test system: Hep3B, HepG2, SK-Hep1 and VX2 cells; test: Active caspase-3 western blot; assay type: cell-based; conditions: all four cell lines; 100, 150, 200 μM
Procedure: The apoptosis of 3-BrPA treated cells was evaluated using Annexin V staining and the formation of active caspase-3. Cells treated with 3-BrPA were stained with anti-Annexin V and analyzed by flow cytometry as well as fluorescent microscopy. Flow cytometry was performed using a Becton-Dickinson FACSCalibur. The gating was done based on unstained control cells, Annexin V—PE stained and 7-AAD stained control cells. For fluorescent microscopy, Annexin V staining was performed using Annexin V staining Microscopy kit (BD Biosciences, USA) according to the protocol recommended by the manufacturer. In brief, cells grown in chambered slides were treated with either 3BrPA or the vehicle, washed once with ice-cold PBS followed by two washes with binding buffer, at the end of the treatment period. Cells were then incubated with the FITC-conjugated Annexin V fluorescent antibody for 15 min followed by a gentle wash. The cells were kept in binding buffer and images were observed captured using a Zeiss Axiovert 200 Microscope (Carl Zeiss Microimaging Inc., USA). Active caspase-3, an apoptotic marker, was identified by western blot analysis. Lysates prepared from equal numbers of cells treated with different concentrations of 3BrPA were subjected to SDS-PAGE electrophoresis and immunoblotting against active (cleaved) caspase-3. […]

[2] = MTD of 3-BrPA buffered with 2.75 ml of NaHCO3
[3] = MTD of 3-BrPA buffered with NaHCO3

O=C(O)C(=O)CBr [3-BrPA, 3-bromopyruvate]
Median survival (VX2 tumor; 5 mg of 3-BrPA in 2.75 ml of PBS orally once a day): 66 days
Survival (VX2 tumor; 10 mg of 3-BrPA in 2.75 ml of PBS orally once a day): 70 days
Median survival (VX2 tumor; 50 mg of 3-BrPA in 2.75 ml of NaHCO3 (1M) orally once a day): 60 days
Time to death after first oral dose (all animals expired) (VX2 tumor; 50 mg of 3-BrPA in 2.75 ml of PBS orally): ≤ 24 h
Animal survival, Kaplan Meier analysis (VX2 tumor; 500 mg in 2.75 ml of NaHCO3 (1 M, resulting in pH 4), orally once a day, compared to groups 2, 3 and 4): significant survival benefit
Median survival time (VX2 tumor; 500 mg of 3-BrPA in 2.75 ml of NaHCO3 orally once a day): 100 days
Outcome of unbuffered 3-BrPA (VX2 tumor; 500 mg, unbuffered, pH<2, oral): immediate death
Time to death (all animals expired) (VX2 tumor; 1000 mg of 3-BrPA in 2.75 ml of NaHCO3 orally): ≤ 24 h
Survival longer than rabbits that did not receive 3-BrPA (VX2 tumor; [2]): 79%
Survival longer than rabbits treated with the MTD of 3-BrPA buffered with PBS (VX2 tumor; [2]): 42%
Cause of death (VX2 tumor; [3]): died of aspiration
Mean liver tumor size (VX2 tumor; [3]): < 0.5 cm
Metastases on pathology (VX2 tumor; [3]): no metastases
Mean liver tumor size (VX2 tumor; all other groups): > 8 cm
Metastases on pathology (VX2 tumor; all other rabbits): widespread metastases
Increase of MTD compared to the MTD of 3-BrPA in PBS (VX2 tumor; buffered with 2.75 ml of 1M NaHCO3): 50 fold
Maximum tolerated dose (MTD) (VX2 tumor; buffered with 2.75 ml of 1M NaHCO3, oral): 500 mg
Effectiveness as a cancer therapeutic (VX2 tumor; buffering conditions that resulted in a pH>6 (500 mg in 2 M NaHCO3, pH 7)): less effective
Maximum tolerated dose (MTD) (VX2 tumor; dissolved in 2.75 ml of PBS, oral): 10 mg
Caspase-3 activation (immunoblot) [1]: dose dependent increase
